Assay results: patent US11091501B2, “Heterocyclic compounds as RSV inhibitors” (Enanta Pharmaceuticals, Inc., priority 2017, dated 2021)

tested on: Human RSV-A (“Long” strain); test: RSV in vitro cytoprotection assay (CPE, ATPlite) in HEp-2 cells; format: cell-based; conditions: human respiratory syncytial virus, 96 h; HEp-2 cells, 4-day incubation, ATPlite readout; read-out: Human RSV-A (“Long” strain) EC50
Description: RSV is a single stranded negative sense RNA virus that causes respiratory tract infections which can be dangerous to infants, the elderly, and immunosuppressed individuals. Currently there is no vaccine, and therapeutic options are both costly and of limited effectiveness. These approved treatments are Ribavirin, and Palivizumab/Synagis (a monoclonal antibody). RSV has two genotypes, A and B, which differ primarily in the structure of the virus' surface “G” attachment protein. Our current primary screen focuses on RSV-A and uses an in vitro cytoprotection assay where compounds are added in 2-fold dilutions to cells which are then subjected to fully replicative viral particles. Cell viability is measured several days later along with separate measurements of compound cytotoxicity. This report focuses on the results of our most recent screening of compounds.
HEp-2 cells, (originally derived from tumors grown in irradiated-cortisonised weanling rats that had been injected with epidermoid carcinoma tissue from a person's larynx, but later found to be indistinguishable from HeLa cells by PCR DNA analysis), were used for the culturing of genotype A, “Long” strain RSV. Flasks were inoculated with RSV and viral stocks were collected once cytopathic effect (CPE) was greater than 90%. Viral stocks in 25% sucrose media were snap frozen using liquid nitrogen to increase viral stability. Viral stock titers were quantified by tissue culture infectious dose 50% (TCID50) using 8,000 cells per well and 3-fold viral dilutions across a 96-well plate, cultured for 4 days.
Following extensive parameter testing, the final assay is run as follows: HEp-2 cells are seeded into the inner 60 wells of a 96-well plate at 8,000 cells per well in a volume of 50 μL using Growth Media (DMEM without phenol red, 1% L-Glut, 1% Penn/Strep, 1% nonessential amino acids, 10% FBS). 2-Fold serial dilutions of control and test compounds are added to the wells in duplicate in a total volume of 25 μL. Viral stock is then added to the wells in a volume of […] the total volume of each well to 100 μL. Each 96-well plate has a control column of 6 wells with cells and virus but no compound (negative control, max CPE), a column with cells but no compound or virus (positive control, minimum CPE), and a column with no cells or virus or compound (background plate/reagent control). The control wells with cells but no virus are given an additional 25 uL of growth media containing an equal quantity of sucrose as those wells receiving the viral stock in order to keep consistent in media and volume conditions. The outer wells of the plate are filled with 125 μL of growth media to act as a thermal and evaporative moat around the test wells. Following a 4-day incubation period, the plates are read using ATPlite (50 uL added per well), which quantifies the amount of ATP (a measure of cell health) present in each well. Assay plates are read using the Envision luminometer. In parallel, cytotoxicity is examined on an additional 96-well plate treated in an identical manner, but substituting the 25 μL of viral stock for 25 μL of growth media. […] EC50 ranges are as follows: A<0.01 μM; B 0.01-0.05 μM; C>0.05 μM.

`Cc1cnc(N2CC3(CCOCC3)C2)c(C(=O)Nc2ccc(C(=O)N3CCc4c(sc(C(=O)Nc5c(C)cccc5F)c4F)-c4ccccc43)cc2)c1` [Example 95] and `Cc1cnc(N2CC3(CCOCC3)C2)c(C(=O)Nc2ccc(C(=O)N3CCc4c(sc(C(=O)Nc5c(C)cccc5C)c4F)-c4ccccc43)cc2)c1` [Example 208] cannot be ordered by EC50: less than 10 nM for the first, less than 10 nM for the second.

Compared with `Cc1cnc(N2CC3(CCOCC3)C2)c(C(=O)Nc2ccc(C(=O)N3CCc4cc(-c5c(F)cncc5F)sc4-c4ccc(F)cc43)cc2)c1` [Example 186], `Cc1cnc(N2CC3(CCOCC3)C2)c(C(=O)Nc2ccc(C(=O)N3CCc4cc(-c5cccnc5)sc4-c4ccc(F)cc43)cc2)c1` [Example 167] is lower in EC50: 10 to 50 nM for the first, less than 10 nM for the second.

First: O=C(Nc1c(F)cc(F)cc1F)c1cc2c(s1)-c1ccc(F)cc1N(C(=O)c1ccc(NC(=O)c3cc4ccccc4nc3N3CC4(CCOCC4)C3)cc1)CC2 [Example 15]
Second: O=C(Nc1c(F)cc(F)cc1F)c1cc2c(s1)-c1ccc(F)cc1N(C(=O)c1ccc(NC(=O)c3cc(F)cnc3N3CC4(CCOCC4)C3)cc1)CC2 [Example 4]
The EC50 of the first is lower: less than 10 nM for the first, greater than 50 nM for the second. The first is the more potent here.

`Cc1cnc(N2CC3(CCOCC3)C2)c(C(=O)Nc2ccc(C(=O)N3CCc4cc(C(=O)Nc5c(F)cccc5F)sc4-c4ccc(F)cc43)cc2)c1` [Example 12] and `O=C(Nc1c(F)cccc1Cl)c1cc2c(s1)-c1ccc(F)cc1N(C(=O)c1ccc(NC(=O)c3cc(F)cnc3N3CC4(CCOCC4)C3)cc1)CC2` [Example 37] cannot be ordered by EC50: less than 10 nM for the first, less than 10 nM for the second.

First: Cc1cnc(N2CC3(CCOCC3)C2)c(C(=O)Nc2ccc(C(=O)N3CCc4c(sc(C(=O)Nc5ccc(F)cc5F)c4F)-c4ccccc43)cc2)c1 [Example 209]
Second: Cc1cnc(N2CC3(CCOCC3)C2)c(C(=O)Nc2ccc(C(=O)N3CCc4c(sc(C(=O)Nc5cc(F)ccc5F)c4F)-c4ccccc43)cc2)c1 [Example 212]
The EC50 of the first is lower: less than 10 nM for the first, 10 to 50 nM for the second.

Compared with `O=C(Nc1c(F)cccc1F)c1nc2c(o1)-c1ccccc1N(C(=O)c1ccc(NC(=O)c3cccnc3N3CC4(CCOCC4)C3)cc1)CC2` [Example 108], `O=C(Nc1c(F)cccc1F)c1cc2c(s1)-c1ccc(Cl)cc1N(C(=O)c1ccc(NC(=O)c3cccnc3N3CC4(CCOCC4)C3)cc1)CC2` [Example 83] is lower in EC50: 10 to 50 nM for the first, less than 10 nM for the second.

First: Cc1cnc(N2CC3(CCOCC3)C2)c(C(=O)Nc2ccc(C(=O)N3CCc4cc(-c5ccnnc5)sc4-c4ccc(F)cc43)cc2)c1 [Example 189]
Second: Cc1cnc(N2CC3(CCOCC3)C2)c(C(=O)Nc2ccc(C(=O)N3CCc4cc(-c5ncccn5)sc4-c4ccc(F)cc43)cc2)c1 [Example 191]
The EC50 of the first is lower: less than 10 nM for the first, 10 to 50 nM for the second. The first is the more potent here.

First: O=C(Nc1c(F)cccc1F)c1cc2c(s1)-c1ccc(F)cc1N(C(=O)c1ccc(NC(=O)c3cccnc3-c3ccc(N4CCOCC4)cc3)cc1)CC2 [Example 62]
Second: O=C(Nc1c(F)cccc1F)c1cc2c(s1)-c1ccc(F)cc1N(C(=O)c1ccc(NC(=O)c3cccnc3C3CCOCC3)cc1)CC2 [Example 61]
The EC50 of the first is higher: greater than 50 nM for the first, 10 to 50 nM for the second. The second is the more potent here.

First: Cc1cnc(N2CC3(CCOCC3)C2)c(C(=O)Nc2ccc(C(=O)N3CCc4c(sc(-c5nc6cccc(C(F)(F)F)c6[nH]5)c4F)-c4ccccc43)cc2)c1 [Example 203]
Second: Cc1ccc(C(=O)Nc2ccc(C(=O)N3CCc4c(sc(-c5nc6cccc(F)c6[nH]5)c4F)-c4ccccc43)cc2)c(N2CC3(CCOCC3)C2)n1 [Example 214]
The EC50 of the first is higher: 10 to 50 nM for the first, less than 10 nM for the second.

`Cc1cnc(N2CC3(CCOCC3)C2)c(C(=O)Nc2ccc(C(=O)N3CCc4c(sc(C(=O)Nc5ncccc5C(F)(F)F)c4F)-c4ccccc43)cc2)c1` [Example 231] and `Cc1cnc(N2CC3(CCOCC3)C2)c(C(=O)Nc2ccc(C(=O)N3CCc4c(sc(C(=O)Nc5cccc(F)c5F)c4F)-c4ccccc43)cc2)c1` [Example 216] cannot be ordered by EC50: less than 10 nM for the first, less than 10 nM for the second.

Compared with `Cc1cnc(N2CC3(CCOCC3)C2)c(C(=O)Nc2ccc(C(=O)N3CCc4cc(C(=O)Nc5cccnn5)sc4-c4ccc(F)cc43)cc2)c1` [Example 126], `Cc1cnc(N2CC3(CCOCC3)C2)c(C(=O)Nc2ccc(C(=O)N3CCc4cc(C(=O)Nc5ncco5)sc4-c4ccc(F)cc43)cc2)c1` [Example 125] is higher in EC50: less than 10 nM for the first, 10 to 50 nM for the second.

`CCS(=O)(=O)CCNc1ncccc1C(=O)Nc1ccc(C(=O)N2CCc3cc(C(=O)Nc4c(F)cccc4F)sc3-c3ccc(F)cc32)cc1` [Example 59] and `Cc1cc(CNc2ncccc2C(=O)Nc2ccc(C(=O)N3CCc4cc(C(=O)Nc5c(F)cccc5F)sc4-c4ccc(F)cc43)cc2)on1` [Example 56] cannot be ordered by EC50: greater than 50 nM for the first, greater than 50 nM for the second.

Going from `Cc1cnc(N2CC3(CCOCC3)C2)c(C(=O)Nc2ccc(C(=O)N3CCc4cc(C(=O)NC5CCS(=O)(=O)CC5)sc4-c4ccc(F)cc43)cc2)c1` [Example 122] to `Cc1cnc(N2CC3(CCOCC3)C2)c(C(=O)Nc2ccc(C(=O)N3CCc4cc(C(=O)Nc5c(C)cccc5C)sc4-c4ccc(F)cc43)cc2)c1` [Example 6], the EC50 falls from greater than 50 nM to less than 10 nM.

Going from `Cc1cnc(N2CC3(CCOCC3)C2)c(C(=O)Nc2ccc(C(=O)N3CCc4cc(-c5nnn[nH]5)sc4-c4ccc(F)cc43)cc2)c1` [Example 196] to `Cc1cnc(N2CC3(CCOCC3)C2)c(C(=O)Nc2ccc(C(=O)N3CCc4cc(-c5ccnn5C)sc4-c4ccc(F)cc43)cc2)c1` [Example 161], the EC50 falls from greater than 50 nM to less than 10 nM. The second is the more potent here.

First: Cc1cnc(N2CC3(CCOCC3)C2)c(C(=O)Nc2ccc(C(=O)N3CCc4c(sc(C(=O)Nc5ncc(F)s5)c4F)-c4ccccc43)cc2)c1 [Example 224]
Second: Cc1cnc(N2CC3(CCOCC3)C2)c(C(=O)Nc2ccc(C(=O)N3CCc4c(sc(C(=O)Nc5c(F)cccc5Cl)c4F)-c4ccccc43)cc2)c1 [Example 197]
The EC50 of the first is higher: 10 to 50 nM for the first, less than 10 nM for the second. The second is the more potent here.

First: Cc1cnc(N2CC3(CCOCC3)C2)c(C(=O)Nc2ccc(C(=O)N3CCc4c(sc(C(=O)Nc5ccccc5)c4F)-c4ccccc43)cc2)c1 [Example 211]
Second: O=C(Nc1ccc(C(=O)N2CCc3c(sc(C(=O)Nc4c(Cl)cccc4Cl)c3F)-c3ccccc32)cc1)c1cccnc1N1CC2(CCOCC2)C1 [Example 90]
The EC50 of the first is lower: less than 10 nM for the first, 10 to 50 nM for the second. The first is the more potent here.

`O=C(Nc1ccc(C(=O)N2CCc3cc(-c4ccn[nH]4)sc3-c3ccc(F)cc32)cc1)c1cc(F)cnc1N1CC2(CCOCC2)C1` [Example 45] and `O=C(Nc1ccc(C(=O)N2CCc3cc(-c4nc5cccc(F)c5[nH]4)sc3-c3ccc(F)cc32)cc1)c1cc(F)cnc1N1CC2(CCOCC2)C1` [Example 43] fall in the same range of EC50: 10 to 50 nM for the first, 10 to 50 nM for the second.

Compared with `Cc1cnc(N2CC3(CCOCC3)C2)c(C(=O)Nc2ccc(C(=O)N3CCc4c(sc(NC(=O)c5c(F)cncc5F)c4F)-c4ccccc43)cc2)c1` [Example 306], `Cc1cnc(N2CC3(CCOCC3)C2)c(C(=O)Nc2ccc(C(=O)N3CCc4cc(NC(=O)OC5CCCCC5)sc4-c4ccccc43)cc2)c1` [Example 294] is higher in EC50: less than 10 nM for the first, 10 to 50 nM for the second. The first is the more potent here.

First: Cc1cccc(F)c1NC(=O)c1cc2c(s1)-c1ccc(C(F)(F)F)cc1N(C(=O)c1ccc(NC(=O)c3cccnc3N3CC4(CCOCC4)C3)cc1)CC2 [Example 85]
Second: O=C(Nc1c(F)cc(F)cc1Cl)c1cc2c(s1)-c1c(cc(F)c(F)c1F)N(C(=O)c1ccc(NC(=O)c3cccnc3N3CC4(CCOCC4)C3)cc1)CC2 [Example 81]
The EC50 of the first is higher: greater than 50 nM for the first, 10 to 50 nM for the second. The second is the more potent here.

Compared with `CCn1nccc1-c1cc2c(s1)-c1ccc(F)cc1N(C(=O)c1ccc(NC(=O)c3cc(C)cnc3N3CC4(CCOCC4)C3)cc1)CC2` [Example 171], `O=C(Nc1c(F)cc(F)cc1Cl)c1cc2c(s1)-c1ccc(F)cc1N(C(=O)c1ccc(NC(=O)c3cc(C(F)F)cnc3N3CC4(CCOCC4)C3)cc1)CC2` [Example 144] is higher in EC50: less than 10 nM for the first, 10 to 50 nM for the second.

First: O=C(Nc1c(F)cccc1Cl)c1cc2c(o1)-c1ccccc1N(C(=O)c1ccc(NC(=O)c3cc4c(nc3N3CC5(CCOCC5)C3)CCC4)cc1)CC2 [Example 249]
Second: O=C(Nc1c(F)cccc1F)c1cc2c(s1)CCN(C(=O)c1ccc(NC(=O)c3cc4c(nc3N3CC5(CCOCC5)C3)CCC4)cc1)c1ccccc1-2 [Example 263]
The EC50 of the first is lower: less than 10 nM for the first, 10 to 50 nM for the second.

`Cc1ccc(C(=O)Nc2ccc(C(=O)N3CCc4cc(NC(=O)OCC(F)(F)F)sc4-c4ccccc43)cc2)c(N2CC3(CCOCC3)C2)n1` [Example 301] and `O=C(Nc1ccc(C(=O)N2CCc3cc(-c4nc5ccccc5[nH]4)sc3-c3c2ccc(F)c3F)cc1)c1cccnc1N1CC2(CCOCC2)C1` [Example 70] fall in the same range of EC50: 10 to 50 nM for the first, 10 to 50 nM for the second.

`O=C(Nc1c(F)cccc1F)c1cc2c(s1)-c1ccc(F)cc1N(C(=O)c1ccc(NC(=O)c3cccnc3N3C[C@@H]4C[C@H]3CO4)cc1)CC2` [Example 48] gave an EC50 of 10 to 50 nM.
